According to patent publication US9463190B2, “Methods of treating disease-induced ataxia and non-ataxic imbalance” (UNIVERSITY OF SOUTH FLORIDA, priority 2008, dated 2016):

Tests used:
[1] = system: ataxia and imbalance; conditions: case series and small controlled trials; cited from earlier work
[2] = system: cerebellar symptoms of SCA14; test: Case report: person with SCA14 taking varenicline (Example 2, second patient); assay type: in vivo, human; conditions: for effect of prior medications on cerebellar symptoms: SCA14 patient, before varenicline; for total SARA score: blinded rating
Method: The second patient was a person who presented to an academic movement disorders center for neurologic evaluation. […] They had never smoked or used drugs or alcohol and had no allergies. Their medical history was significant for hypertension, which was treated with 325 mg of valsartan (Diovan). Prior medications to treat their cerebellar symptoms included levodopa/carbidopa (Sinemet), lorazepam (Ativan), clonazapem (Klonopin), and zolpidem (Ambien), to no avail.
On evaluation, the patient's vital signs and physical examination were normal. Their neurologic examination included a Mini-Mental Status Examination of 30/30, mild dysarthria, mild postural and intention tremor, and moderate dysmetria in all extremities. Their gait consisted of moderate to severe ataxia, and they required the constant use of a walker or the support of a cane to ambulate. The patient could tandem walk only with support. Increased tone and hyperreflexia were present in their lower extremities, with occasional myoclonus of their right leg.
The patient was started on 0.5 mg of varenicline (Chantix®) once a day, titrating to 1 mg twice daily after 1 week with the understanding that this was being used as an off-label medication. […] The patient returned to the academic movement disorders center 3 weeks after starting varenicline. […] The patient was scored by a blinded movement disorders expert using the SARA. The patient's total SARA score before taking 1 mg of varenicline twice daily was 22, whereas the score 3 weeks after starting varenicline was 8. The patient remained on varenicline for 8 weeks with continued efficacy but discontinued it owing to financial considerations.

[3] = system: cerebellar symptoms of spinocerebellar ataxia (SCA) and Fragile-X-Associated Tremor Ataxia Syndrome (FXTAS); test: Open-label varenicline in ataxic patients; SARA and CGI, blinded video assessment; assay type: in vivo, human
Method: DESIGN/METHODS: Seven patients from an academic movement disorders center with spinocerebellar ataxia (n=6) and […]=1), were treated with open-label varenicline 1 mg twice daily. Two patients had genetically confirmed SCA 3, 1 patient had genetically confirmed SCA 6, 3 patients had sporadic cerebellar ataxia with no family history, and 1 patient had genetically-confirmed FXTAS. Patients were treated for 4 weeks with varenicline, which was discontinued on day 30. They were assessed at baseline and after 4 weeks using the Scale for the Assessment and Rating of Ataxia (SARA) (Schmitz-Hubsch et al, 2006) and the Clinical Global Impression (CGI) scale. Ataxia experts blindly assessed videotapes of the patients. […] In the remaining 5 patients, there was a mean improvement of 2.4 points in gait scores and of 5 points for the total SARA scores with varenicline use.

[4] = system: ataxia and imbalance in Fragile X-associated Tremor Ataxia syndrome (FXTAS); test: Case report: person with FXTAS taking varenicline (Example 1); assay type: in vivo, human; conditions: for SARA score, functional staging for ataxia / SARA score, gait / SARA score, tandem walking: blinded video rating
Method: The patient was a person with a nine-year history of postural and intention tremor of their arms and a four-year history of gait ataxia. Their symptoms became disabling in the past year with frequent falls despite the intermittent use of a walker. […] A timeline of the patient's clinical course is depicted in FIG. 1. […] One week after taking varenicline, they noted that their walking improved and they no longer needed assistance from a walker to ambulate. […] The patient was evaluated by the University of South Florida (USF) movement disorders center seven weeks after starting varenicline. Vital signs and physical examination were normal. Their neurological examination included a Mini Mental State Exam (MMSE) of 26/30, mild dysarthria, mild voice tremor, severe postural and intention tremor of their arms, mild rigidity, and moderate dysmetria in all extremities. They were able to get out of a chair without assistance, and continued to walk six meters five times (30 meters total) without rest or the assistance of a walker. They were able to tandem walk for two to three steps. The rest of their neurological exam, including cranial nerves, reflexes, motor and sensory examination, was within normal limits. The patient received a score of 5 (out of a maximum possible score=63) on a Beck's Depression Scale (BDI) (2). […] Chest X-ray was clear, with no evidence of neoplasia. The patient stopped varenicline seven weeks after starting it. Within 10 days, they reported a slight worsening of the residual ataxia and imbalance. Within three weeks, they again needed a walker for ambulation and began to fall daily. The patient returned to clinic off varenicline. […] They once again needed assistance to walk and was unable to tandem walk even with assistance. The rest of the neurological examination remained unchanged, including the postural and intention tremor. […] At week 11, the patient re-started varenicline one mg twice daily, and again noted improvement in ataxia within one week. Due to vivid dreams, the varenicline dose was decreased to one mg daily at week 12. The patient has taken varenicline for 22 weeks, with a sustained ataxia improvement. A videotape of the patient was scored by a blinded movement disorders expert using the SARA (Scale for Assessment and Rating of Ataxia) (3). The SARA scores on varenicline one mg b.i.d. were “two” for functional staging for ataxia (ataxic symptoms were present and were recognized by patient, but were still mild), “one” for tandem walking (the patient was able to tandem walk in less than perfect manner or the patient could tandem walk greater than four sequential steps but less than eight steps) and “zero” for gait (normal). The SARA scores after the patient had discontinued varenicline for three weeks included a “three” for functional staging for ataxia (ataxic symptoms considered overt and significant), “three” for tandem walking (the patient was considered too poorly coordinated to attempt the task), and “two” for gait (the patient walked with definite ataxia; may have needed intermittent support for walking or the examiner needed to walk with patient for safety sake).

[5] = system: cerebellar symptoms of SCA type 3; test: Case report: person with SCA type 3 taking varenicline (Example 2, first patient); assay type: in vivo, human; conditions: for total SARA score: blinded video rating
Excerpt: The first patient was a person with a 16-year history of imbalance, gait dysfunction, and dysarthria who presented to an academic movement disorders center for management of their symptoms. […] Their medical history included one myocardial infarction 2 years ago, coronary artery disease, hypertension, and hyperlipidemia. […] On examination, the patient's vital signs and physical examination were normal. Their neurologic examination included a Mini-Mental Status Exam (MMSE) of 30/30, mild dysarthria, mild to moderate postural and intention tremor, mild dystonia in their arms, mild akinesia, and moderate dysmetria in all extremities. Fast alternating hand movements were irregular and marked by interruptions, and their heel to shin slide was severely abnormal bilaterally. Their gait was ataxic and […], and they required the constant use of a walker or the support of a cane to ambulate. Their cranial nerves and motor examination were normal, although there was mild decrease in […] sensory examination to light and deep touch in a stocking-glove distribution. There was increased tone and hyperreflexia in their lower extremities. […] After the evaluation, the patient started varenicline 0.5 mg twice daily for smoking cessation. The dose of varenicline was increased to 1 mg twice daily after one week. […] The patient returned to the academic movement disorders center one month after starting varenicline for routine follow-up. […] A videotape of the patient was scored by a blinded movement disorders expert using the SARA (Scale for Assessment and Rating of Ataxia) (1). The total SARA score prior to the patient taking varenicline 1 mg twice daily was 29, while the score one month after starting varenicline was 13.

[6] = target: α4β2 nicotinic acetylcholine receptors (Homo sapiens, UniProt P17787+P43681); conditions: cited from earlier work
Chain of α4β2 nicotinic acetylcholine receptors (P43681 29-627 limits assumed): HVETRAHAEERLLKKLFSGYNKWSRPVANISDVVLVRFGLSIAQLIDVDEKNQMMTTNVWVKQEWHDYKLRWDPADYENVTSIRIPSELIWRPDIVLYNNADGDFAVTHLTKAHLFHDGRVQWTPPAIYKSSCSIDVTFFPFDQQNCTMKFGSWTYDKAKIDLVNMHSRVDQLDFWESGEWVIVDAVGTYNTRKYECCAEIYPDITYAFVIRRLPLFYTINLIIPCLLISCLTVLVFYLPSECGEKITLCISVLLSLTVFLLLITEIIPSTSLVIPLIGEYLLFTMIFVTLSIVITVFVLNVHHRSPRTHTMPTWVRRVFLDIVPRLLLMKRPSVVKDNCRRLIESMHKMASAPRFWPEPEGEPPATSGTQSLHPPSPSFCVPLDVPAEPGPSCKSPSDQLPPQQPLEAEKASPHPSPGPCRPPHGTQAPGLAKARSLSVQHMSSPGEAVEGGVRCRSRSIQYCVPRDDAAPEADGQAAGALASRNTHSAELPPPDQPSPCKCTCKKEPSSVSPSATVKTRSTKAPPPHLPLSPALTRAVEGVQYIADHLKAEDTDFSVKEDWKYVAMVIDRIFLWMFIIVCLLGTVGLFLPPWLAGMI
Chain of α4β2 nicotinic acetylcholine receptors (P17787 26-502): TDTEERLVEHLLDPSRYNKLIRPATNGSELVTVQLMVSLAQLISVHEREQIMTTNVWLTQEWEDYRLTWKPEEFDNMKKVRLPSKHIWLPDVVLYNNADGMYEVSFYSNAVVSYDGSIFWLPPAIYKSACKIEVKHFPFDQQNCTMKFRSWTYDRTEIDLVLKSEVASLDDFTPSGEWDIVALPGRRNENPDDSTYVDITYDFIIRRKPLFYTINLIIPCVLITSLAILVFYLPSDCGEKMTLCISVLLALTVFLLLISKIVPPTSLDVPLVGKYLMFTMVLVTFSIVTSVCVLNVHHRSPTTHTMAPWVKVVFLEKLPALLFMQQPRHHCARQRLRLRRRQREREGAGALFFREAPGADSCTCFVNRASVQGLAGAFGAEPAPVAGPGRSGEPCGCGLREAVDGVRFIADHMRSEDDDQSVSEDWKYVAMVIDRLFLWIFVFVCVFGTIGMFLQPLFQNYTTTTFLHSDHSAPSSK

[7] = target: α7 nicotinic acetylcholine receptors (Homo sapiens, UniProt P36544); conditions: cited from earlier work
Chain of α7 nicotinic acetylcholine receptors (P36544 23-502): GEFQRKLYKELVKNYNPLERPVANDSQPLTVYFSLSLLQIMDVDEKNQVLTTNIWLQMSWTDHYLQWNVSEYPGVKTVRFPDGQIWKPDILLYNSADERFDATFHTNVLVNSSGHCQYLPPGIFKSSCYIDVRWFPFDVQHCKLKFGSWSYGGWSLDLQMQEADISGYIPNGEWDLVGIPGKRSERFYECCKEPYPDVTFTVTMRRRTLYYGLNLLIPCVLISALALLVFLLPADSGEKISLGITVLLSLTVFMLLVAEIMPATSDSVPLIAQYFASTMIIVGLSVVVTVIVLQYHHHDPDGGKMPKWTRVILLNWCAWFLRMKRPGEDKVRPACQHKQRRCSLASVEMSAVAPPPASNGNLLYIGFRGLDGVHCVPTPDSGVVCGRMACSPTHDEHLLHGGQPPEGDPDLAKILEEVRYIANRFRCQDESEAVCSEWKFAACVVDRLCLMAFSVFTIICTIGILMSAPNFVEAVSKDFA

[8] = in vivo; cited from earlier work
[9] = of 5 remaining patients, 1 mg twice daily, 4 weeks
[10] = varenicline discontinued for three weeks
[11] = varenicline stopped after seven weeks
[12] = one month after starting varenicline
[13] = twenty-one days after first taking varenicline
[14] = 3 weeks after starting varenicline

**Q.** For `O=C1CC2(CCCC2)CC(=O)N1CCCCN1CCN(c2ncccn2)CC1` [buspirone], which “efficacy in ataxia and imbalance” value [1] is on record?
**A.** either conflicting results or limited efficacy

**Q.** Which “effect of prior medications on cerebellar symptoms” value (“effect of prior medications” for short) [2] does the source give for `O=C1CN=C(c2ccccc2Cl)c2cc([N+](=O)[O-])ccc2N1` [clonazapem] here?
**A.** to no avail

**Q.** With `CNCCC(Oc1ccc(C(F)(F)F)cc1)c1ccccc1` (stereo not drawn) [fluoxetine] as the compound, how does the “efficacy in ataxia and imbalance” value [1] read?
**A.** either conflicting results or limited efficacy

**Q.** For `Nc1nnc(-c2cccc(Cl)c2Cl)c(N)n1` [lamotrigine], which “efficacy in ataxia and imbalance” value [1] is on record?
**A.** either conflicting results or limited efficacy

**Q.** Which “effect of prior medications” value [2] does the source give for `O=C1Nc2ccc(Cl)cc2C(c2ccccc2Cl)=NC1O` (stereo not drawn) [lorazepam] here?
**A.** to no avail

**Q.** With `c1cnc2cc3c(cc2n1)[C@@H]1CNC[C@H]3C1` [varenicline, 7,8,9,10-tetrahydro-6,10-methano-6H-pyrazino (2,3-h)(3) benzazepine] as the compound, how does the “mean improvement in total SARA scores” value ([3]; 5 remaining patients, varenicline 1 mg twice daily, 4 weeks vs baseline) read?
**A.** 5 points

**Q.** And the “mean improvement in gait scores” value ([3]; 5 remaining patients, varenicline 1 mg twice daily, 4 weeks vs baseline, SARA)?
**A.** 2.4 points

**Q.** And the “effect on cerebellar symptoms (conclusion)” value ([3]; blinded video analysis of ataxic patients)?
**A.** effectively treat cerebellar symptoms

**Q.** And the “patients with marked improvement in gait as measured by the CGI” value [3, 9]?
**A.** Three

**Q.** What about the “patients with moderate improvement in gait as measured by the CGI” value [3, 9] of the same compound?
**A.** 2 patients

**Q.** What about the “reason for discontinuation of varenicline” value ([3]; two of seven patients (one SCA 6, one sporadic ataxia)) of the same compound?
**A.** flu-like symptoms and increased tremor

**Q.** And the “reduction of intake of cigarettes” value ([3]; two smokers with marked improvement in gait, while taking varenicline)?
**A.** 50%

**Q.** And the “ataxia and imbalance after starting varenicline” value ([4]; FXTAS patient)?
**A.** greatly improved

**Q.** What about the “duration of sustained response after open-label resumption” value ([4]; FXTAS patient) of the same compound?
**A.** five

**Q.** And the “BDI score off varenicline” value ([4]; after discontinuation)?
**A.** had not changed

**Q.** What about the “neurological examination off varenicline” value ([4]; after discontinuation) of the same compound?
**A.** returned to the pre-varenicline state

**Q.** And the “duration of varenicline use with sustained ataxia improvement” value ([4]; dose decreased to one mg daily at week 12)?
**A.** 22 weeks

**Q.** And the “SARA score, functional staging for ataxia” value ([4]; on varenicline one mg b.i.d.)?
**A.** two

**Q.** What about the “SARA score, gait” value ([4]; on varenicline one mg b.i.d.) of the same compound?
**A.** zero

**Q.** And the “SARA score, tandem walking” value ([4]; on varenicline one mg b.i.d.)?
**A.** one

**Q.** What about the “onset of vivid dreaming after starting” value ([4]; one mg twice daily) of the same compound?
**A.** two

**Q.** What about the side effect ([4]; one mg twice daily) of the same compound?
**A.** vivid dreaming

**Q.** What about the smoking cessation ([4]; one mg twice daily) of the same compound?
**A.** helped them quit smoking in a few days

**Q.** And the “time until walking improved and walker no longer needed” value ([4]; one mg twice daily)?
**A.** One

**Q.** What about the balance ([4]; one mg twice daily, one week) of the same compound?
**A.** marked improvement

**Q.** And the “Beck's Depression Scale (BDI) score” value ([4]; seven weeks after starting varenicline, maximum possible score 63)?
**A.** 5

**Q.** What about the “distance walked without rest or assistance of a walker” value ([4]; seven weeks after starting varenicline, six meters five times) of the same compound?
**A.** 30 meters

**Q.** And the “SARA score, functional staging for ataxia” value [4, 10]?
**A.** three

**Q.** What about the “SARA score, gait” value [4, 10] of the same compound?
**A.** two

**Q.** What about the “SARA score, tandem walking” value [4, 10] of the same compound?
**A.** three

**Q.** And the “time to slight worsening of residual ataxia and imbalance after stopping” value [4, 11]?
**A.** ≤ 10 days

**Q.** What about the “time until walker again needed and daily falls after stopping” value [4, 11] of the same compound?
**A.** three

**Q.** What about the “time to reported improvement in depth perception and easier, more stable walking” value ([5]; 0.5 mg twice daily, 1 mg twice daily after one week) of the same compound?
**A.** Ten

**Q.** And the “gait dysfunction and akinesia” value [5, 12]?
**A.** improved markedly

**Q.** What about the “limb dysmetria, fast alternating movements, finger to nose and heel-shin slide” value [5, 12] of the same compound?
**A.** markedly improved

**Q.** What about the “total SARA score” value [5, 12] of the same compound?
**A.** 13

**Q.** And the “total SARA score” value ([5]; prior to taking varenicline 1 mg twice daily)?
**A.** 29

**Q.** And the balance [5, 13]?
**A.** markedly improved

**Q.** And the “distance walked using only a cane rather than a walker” value [5, 13]?
**A.** 3 blocks

**Q.** And the smoking cessation ([5]; while taking varenicline)?
**A.** did not stop smoking cigarettes

**Q.** And the “duration of nausea after taking the medication” value ([2]; 0.5 mg once a day, titrating to 1 mg twice daily after 1 week)?
**A.** 7 days

**Q.** What about the “speech, dysmetria, finger-to-nose and heel-to-shin maneuvers” value [2, 14] of the same compound?
**A.** markedly improved

**Q.** What about the “total SARA score” value [2, 14] of the same compound?
**A.** 8

**Q.** What about the gait dysfunction ([2]; 3 weeks after starting varenicline, could walk without assistance) of the same compound?
**A.** improved markedly

**Q.** And the “neurologic examination after discontinuation” value ([2]; 4 weeks after discontinuing varenicline)?
**A.** returned to prevarenicline status

**Q.** And the “time to reported marked improvements in walking, coordination, speech and balance” value ([2]; after starting varenicline)?
**A.** 8 days

**Q.** And the “total SARA score” value ([2]; before taking 1 mg of varenicline twice daily)?
**A.** 22

**Q.** And the “duration on varenicline with continued efficacy” value ([2]; discontinued owing to financial considerations)?
**A.** 8 weeks

**Q.** And the “type of activity at α4β2 nicotinic acetylcholine receptors” value [6]?
**A.** highly selective partial agonist

**Q.** What about the “type of activity at α7 nicotinic acetylcholine receptors” value [7] of the same compound?
**A.** full agonist

**Q.** What about the adverse effects [8] of the same compound?
**A.** nausea, sleep disturbance, constipation, flatulence, and vomiting

**Q.** And the “potential risks associated with use” value [8]?
**A.** suicidal behavior, depressed mood, and agitation

**Q.** With `Cc1ccc(-c2nc3ccc(C)cn3c2CC(=O)N(C)C)cc1` [zolpidem] as the compound, how does the “effect of prior medications” value [2] read?
**A.** to no avail

**Q.** And the “efficacy in ataxia and imbalance” value [1]?
**A.** either conflicting results or limited efficacy
